The values that follow come from publication PMC8286840, “Identifying SARS-CoV-2 antiviral compounds by screening for small molecule inhibitors of Nsp3 papain-like protease” (Biochemical Journal, 2021).

Structures can show the parent of a compound that is named as a salt. Where two headings read alike, the source gives them in different places.

Test [1] deals with T1, SARS-CoV-2 PLpro (nsp3 1564–1878) (Severe acute respiratory syndrome coronavirus 2, UniProt P0DTD1). The test can be described thus: biochemical. Set-up: FRET-quenched peptide (Pro3) cleavage by PLpro, 10 min pre-incubation, slope over 20 min, normalised to no-compound control. The conditions noted are these: low concentration screen, read-out: % of control remaining.
Test [2] has as its target T1, SARS-CoV-2 PLpro (nsp3 1564–1878). The test can be described thus: biochemical. Set-up: FRET-quenched peptide (Pro3) cleavage by PLpro, 10 min pre-incubation, slope over 20 min, normalised to no-compound control. Particulars: high concentration screen, read-out: % of control remaining.

`O=c1cc(-c2ccccc2)oc2cc(O)cc(O)c12` [Chrysine]: the remaining activity at 1.25 µM in test [1] (Well no.=3276) was found to be 101%. For the same compound, in test [2] (Well no.=3276), the remaining activity at 3.75 µM was 100%.

For the compound `CC(C)C(=O)OCC(=O)[C@@]12O[C@H](C3CCCCC3)O[C@@H]1C[C@H]1[C@@H]3CCC4=CC(=O)C=C[C@]4(C)[C@H]3[C@@H](O)C[C@@]12C` [Ciclesonide], the remaining activity at 1.25 µM in test [1] (Well no.=7323) is 95.9%. Also, the remaining activity at 3.75 µM in test [2] (Well no.=7323) was determined as 97.2%.

Consider `Nc1ccn(C[C@@H](CO)OCP(=O)(O)O)c(=O)n1` [Cidofovir (Vistide)], for which the remaining activity at 1.25 µM in test [1] (Well no.=5251) was determined as 98.3%. In addition, the remaining activity at 3.75 µM in test [2] (Well no.=5251) was found to be 101%.

For the compound `CC1(COc2ccc(CC3SC(=O)NC3=O)cc2)CCCCC1` (centres unmarked) [Ciglitazone], in test [1] (Well no.=4236), the remaining activity at 1.25 µM worked out at 110%. The remaining activity at 3.75 µM in test [2] (Well no.=4236) was found to be 107%.

As to `CC1(COc2ccc(CC3SC(=O)NC3=O)cc2)CCCCC1` (centres unmarked) [Ciglitizone], the remaining activity at 1.25 µM in test [1] (Well no.=222) was determined as 99%. The remaining activity at 3.75 µM in test [2] (Well no.=222) came to 97.7%.

Take `CC1(C)C[C@@H]1C(=O)N/C(=C\CCCCSC[C@H](N)C(=O)O)C(=O)O` [Cilastatin]: the remaining activity at 1.25 µM in test [1] (Well no.=2198) stood at 94.3%. Moreover, in test [2] (Well no.=2198), the remaining activity at 3.75 µM is 95.6%.

Take `CC(C)[C@H]1C(=O)N[C@@H](CCCNC(=N)N)C(=O)NCC(=O)N[C@@H](CC(=O)O)C(=O)N[C@H](Cc2ccccc2)C(=O)N1C` [Cilengitide (EMD 121974, NSC 707544)]: the remaining activity at 1.25 µM in test [1] (Well no.=5174) amounted to 94.8%. Further, the remaining activity at 3.75 µM in test [2] (Well no.=5174) came out at 96.2%.

Consider `COCCOC(=O)C1=C(C)NC(C)=C(C(=O)OC/C=C/c2ccccc2)C1c1cccc([N+](=O)[O-])c1` (centres unmarked) [Cilnidipine], for which, in test [1] (Well no.=1759), the remaining activity at 1.25 µM stood at 98.8%. Besides, the remaining activity at 3.75 µM in test [2] (Well no.=1759) turned out to be 98.3%.

As to `CN(C(=O)CCCOc1ccc2[nH]c(=O)ccc2c1)C1CCCCC1` [Cilostamide], the remaining activity at 1.25 µM in test [1] (Well no.=234) worked out at 91.5%; in test [1] (Well no.=2142), 95.9%. Further, the remaining activity at 3.75 µM in test [2] (Well no.=234) came out at 94.4%; in test [2] (Well no.=2142), 98.8%.

As for `O=C1CCc2cc(OCCCCc3nnnn3C3CCCCC3)ccc2N1` [Cilostazol], in test [1] (Well no.=281), the remaining activity at 1.25 µM came to 94.5%. Further, the remaining activity at 3.75 µM in test [2] (Well no.=281) turned out to be 95.3%.

For the compound `CC(C)NCC(O)c1ccc(N)c(C#N)c1` (centres unmarked) [Cimaterol], the remaining activity at 1.25 µM in test [1] (Well no.=1779) came out at 102%. For the same compound, in test [2] (Well no.=1779), the remaining activity at 3.75 µM came to 99.7%.

For `CN/C(=N\CCSCc1nc[nH]c1C)NC#N` [Cimetidine], the figures for the remaining activity at 1.25 µM in test [1] (Well no.=272), in test [1] (Well no.=1875) and in test [1] (Well no.=7328) were 88%, 96.3% and 94.5%, respectively. The remaining activity at 3.75 µM in test [2] (Well no.=272) is 93.4%; in test [2] (Well no.=1875), 99.3%; in test [2] (Well no.=7328), 97.6%.

With `C[C@@H](NCCCc1cccc(C(F)(F)F)c1)c1cccc2ccccc12` [Cinacalcet (hydrochloride)], in test [1] (Well no.=7426), the remaining activity at 1.25 µM came to 104%. Further, in test [2] (Well no.=7426), the remaining activity at 3.75 µM came to 104%.

For `C[C@@H](NCCCc1cccc(C(F)(F)F)c1)c1cccc2ccccc12` [Cinacalcet], in test [1] (Well no.=7389), the remaining activity at 1.25 µM was found to be 96.2%. The remaining activity at 3.75 µM in test [2] (Well no.=7389) came to 82.2%.

As for `CN(C)CCCSc1ccccc1NC(=O)/C=C/c1ccccc1` [Cinanserin], in test [1] (Well no.=2094), the remaining activity at 1.25 µM stood at 101%. Moreover, the remaining activity at 3.75 µM in test [2] (Well no.=2094) came to 101%.

Turning to `C=C[C@H]1CN2CC[C@H]1C[C@@H]2[C@@H](O)c1ccnc2ccccc12` [Cinchonine], the remaining activity at 1.25 µM in test [1] (Well no.=7012) came out at 97.3%. The remaining activity at 3.75 µM in test [2] (Well no.=7012) was 93.6%.

With `COc1cc(/C=C/C(=O)N2CCN(CC(=O)N3CCCC3)CC2)cc(OC)c1OC` [Cinepazide maleate], in test [1] (Well no.=5271), the remaining activity at 1.25 µM stood at 95.9%. Moreover, in test [2] (Well no.=5271), the remaining activity at 3.75 µM is 96.6%.

As for `Nc1c(C(=O)O)c2nc3c(C(=O)O)cccc3oc-2cc1=O` [Cinnabarinic Acid], the remaining activity at 1.25 µM in test [1] (Well no.=5384) worked out at 91.8%. Also, the remaining activity at 3.75 µM in test [2] (Well no.=5384) came to 96.7%.

For `O=C(O)/C=C/c1ccccc1` [Cinnamic acid], the remaining activity at 1.25 µM in test [1] (Well no.=7011) was 104%. Also, the remaining activity at 3.75 µM in test [2] (Well no.=7011) is 105%.

Turning to `CCn1nc(C(=O)O)c(=O)c2cc3c(cc21)OCO3` [Cinoxacin], the remaining activity at 1.25 µM in test [1] (Well no.=332) is 98.1%. In addition, in test [2] (Well no.=332), the remaining activity at 3.75 µM is 96.9%.

As for `CC(C)(C[C@H]1CN(S(=O)(=O)c2cccc(C(F)(F)F)c2)c2cc(-c3cc(F)cc(OC(F)F)c3)ccc2O1)C(=O)O` [Cintirorgon], the remaining activity at 1.25 µM in test [1] (Well no.=8171) worked out at 99.9%. For the same compound, in test [2] (Well no.=8171), the remaining activity at 3.75 µM came out at 98.6%.

For `CC(C)(Oc1ccc(C2CC2(Cl)Cl)cc1)C(=O)O` (centres unmarked) [Ciprofibrate], in test [1] (Well no.=41), the remaining activity at 1.25 µM turned out to be 92.6%. For the same compound, the remaining activity at 3.75 µM in test [2] (Well no.=41) is 93.5%.

As to `O=C(O)c1cn(C2CC2)c2cc(N3CCNCC3)c(F)cc2c1=O` [Ciprofloxacin], the remaining activity at 1.25 µM in test [1] (Well no.=2263) came to 99%. Besides, the remaining activity at 3.75 µM in test [2] (Well no.=2263) was 100%.

On to `O=C(c1ccc(OCCCc2c[nH]cn2)cc1)C1CC1` [Ciproxifan (maleate)], for which the remaining activity at 1.25 µM in test [1] (Well no.=7089) worked out at 103%. In test [2] (Well no.=7089), the remaining activity at 3.75 µM turned out to be 105%.

For `O=C(c1ccc(OCCCc2c[nH]cn2)cc1)C1CC1` [Ciproxifan], in test [1] (Well no.=5316), the remaining activity at 1.25 µM came to 101%. In addition, the remaining activity at 3.75 µM in test [2] (Well no.=5316) is 97%.

On to `c1ccc(C2CC2)c(OCC2=NCCN2)c1` [Cirazoline hydrochloride], for which the remaining activity at 1.25 µM in test [1] (Well no.=537) stood at 106%. For the same compound, the remaining activity at 3.75 µM in test [2] (Well no.=537) was determined as 103%.

For `CN(C)CCCC1(c2ccc(F)cc2)OCc2cc(C#N)ccc21` (centres unmarked) [Citalopram hydrobromide], in test [1] (Well no.=90), the remaining activity at 1.25 µM was 95%. The remaining activity at 3.75 µM in test [2] (Well no.=90) amounted to 100%.

As for `CN(C)CCCC1(c2ccc(F)cc2)OCc2cc(C#N)ccc21` (centres unmarked) [Citalopram], the remaining activity at 1.25 µM in test [1] (Well no.=2265) turned out to be 97.4%. The remaining activity at 3.75 µM in test [2] (Well no.=2265) amounted to 103%.

`C[N+](C)(C)CCOP(=O)(O)OP(=O)([O-])OC[C@H]1O[C@@H](n2ccc(N)nc2=O)[C@H](O)[C@@H]1O` [Citicoline sodium salt]: in test [1] (Well no.=7726), the remaining activity at 1.25 µM was 104%. Further, in test [2] (Well no.=7726), the remaining activity at 3.75 µM was 110%.

On to `C[N+](C)(C)CCOP(=O)(O)OP(=O)([O-])OC[C@H]1O[C@@H](n2ccc(N)nc2=O)[C@H](O)[C@@H]1O` [Citicoline sodium], for which the remaining activity at 1.25 µM in test [1] (Well no.=375) stood at 91.9%. In addition, in test [2] (Well no.=375), the remaining activity at 3.75 µM was 101%.

Consider `C[N+](C)(C)CCOP(=O)(O)OP(=O)([O-])OC[C@H]1O[C@@H](n2ccc(N)nc2=O)[C@H](O)[C@@H]1O` [Citicoline], for which the remaining activity at 1.25 µM in test [1] (Well no.=8931) amounted to 89%. In addition, in test [2] (Well no.=8931), the remaining activity at 3.75 µM is 88.7%.
